Measured values reported in US12485132B2, “GPX4 inhibitors and senolytic compounds and uses thereof” (Rubedo Life Sciences, Inc., priority 2023, dated 2025).

tested on: senescent HEPG2 cells; assay: Senescence assay: viability of senescent HEPG2 cells; assay type: cell-based; conditions: Homo sapiens, 24-72 hours incubation, viability by CellTiter-Glo or XTT, read-out: Absolute IC50 average HEPG2_SEN IC50
Experimental: Cells were maintained in DMEM media (high glucose, 4 mM L-glutamine, no sodium pyruvate) supplemented with 10% fetal bovine serum in a humidified incubator at 37° C. with 5% carbon dioxide. Senescence was induced via treatment with a sublethal concentration of chemotherapy (bleomycin, gemcitabine, doxorubicin, 5-fluorouridine), followed by a rest period without chemotherapy similarly to what is reported by others in the field (e.g., Aoshiba et al., 2003 Eur Respir J 22:436-443). Senescence was qualified by low EdU (5-ethynyl-2′-deoxyuridine) incorporation and high SA-β-Gal (senescence-associated beta-galactosidase) staining compared to proliferating untreated cells. Senescent cells were plated into 96-well plates at a density of 5-15,000 cells/well. The next day, compounds were added in duplicate across ten different concentrations spanning roughly four Log10 units. Cells were incubated with the compounds for 24-72 hours, at which point viability was quantified using CellTiter-Glo (Promega) or XTT (R&D Systems). The viability for treated cells was determined relative to untreated control cells. The log of the compound concentration vs. normalized mean viability was fit to a four parameters Hill function with variable slope. The bottom was constrained to be greater than zero. The X mean value for Y=50 was interpolated to determine the absolute IC50. The results in Table 2 indicate that many of the compounds are active in cells and can induce a dose dependent decrease in the viability of senescent HEPG2 and A549 cells.

IC50 [nM] | SMILES
0.1 to 10 | C#CC(F)(F)[C@]1(O)CC[C@H]2[C@@H]3CCC4=C/C(=N\OCCOCCOCCOC)CCC4=C3[C@@H](c3ccc(C4CC4)cc3)C[C@@]21C [Compound 14, (8S,11R,13S,14S,17S,Z)-11-(4-cyclopropylphenyl)-17-(1,1-difluoroprop-2-yn-1-yl)-17-hydroxy-13-methyl-1,2,6,7,8,11,12,13,14,15,16,17-dodecahydro-3H-cyclopenta[a]phenanthren-3-one O-(2-(2-(2-methoxyethoxy)ethoxy)ethyl)oxime]
0.1 to 10 | C#CC(F)(F)[C@]1(O)CC[C@H]2[C@@H]3CCC4=C/C(=N/OCCOCCO)CCC4=C3[C@@H](c3ccc(C4CC4)cc3)C[C@@]21C [Compound 12, (8S,11R,13S,14S,17S,E)-11-(4-cyclopropylphenyl)-17-(1,1-difluoroprop-2-yn-1-yl)-17-hydroxy-13-methyl-1,2,6,7,8,11,12,13,14,15,16,17-dodecahydro-3H-cyclopenta[a]phenanthren-3-one O-(2-(2-hydroxyethoxy)ethyl)oxime]
0.1 to 10 | C#CC(F)(F)[C@]1(O)CC[C@H]2[C@@H]3CCC4=C/C(=N/NC(=O)CN)CCC4=C3[C@H](c3ccc(C4CC4)cc3)C[C@@]21C [Compound 35, 2-amino-N′-((8S,11S,13S,14S,17S,E)-11-(4-cyclopropylphenyl)-17-(1,1-difluoroprop-2-yn-1-yl)-17-hydroxy-13-methyl-1,2,6,7,8,11,12,13,14,15,16,17-dodecahydro-3H-cyclopenta[a]phenanthren-3-ylidene)acetohydrazide]
0.1 to 10 | C#CC(F)(F)[C@]1(O)CC[C@H]2[C@@H]3CCC4=CC(=NOCCOCCOCCOCCNC(=O)CCCCC5SCC6NC(=O)NC65)CCC4=C3[C@@H](c3ccc(C4CC4)cc3)C[C@@]21C (some centres unmarked) [compound 21]
0.1 to 10 | C#CC(F)(F)[C@]1(O)CC[C@H]2[C@@H]3CCC4=C/C(=N/NC(N)=O)CCC4=C3[C@H](c3ccc(C4CC4)cc3)C[C@@]21C [Compound 41, (E)-2-((8S,11S,13S,14S,17S)-11-(4-cyclopropylphenyl)-17-(1,1-difluoroprop-2-yn-1-yl)-17-hydroxy-13-methyl-1,2,6,7,8,11,12,13,14,15,16,17-dodecahydro-3H-cyclopenta[a]phenanthren-3-ylidene)hydrazine-1-carboxamide]
0.1 to 10 | C#CC(F)(F)[C@]1(O)CC[C@H]2[C@@H]3CCC4=C/C(=N/NC(=O)CO)CCC4=C3[C@H](c3ccc(C4CC4)cc3)C[C@@]21C [Compound 37, N′-((8S,11S,13S,14S,17S,E)-11-(4-cyclopropylphenyl)-17-(1,1-difluoroprop-2-yn-1-yl)-17-hydroxy-13-methyl-1,2,6,7,8,11,12,13,14,15,16,17-dodecahydro-3H-cyclopenta[a]phenanthren-3-ylidene)-2-hydroxyacetohydrazide]
0.1 to 10 | C#CC(F)(F)[C@]1(O)CC[C@H]2[C@@H]3CCC4=C/C(=N/O[C@@H]5O[C@@H](C)[C@@H](O)[C@@H](O)[C@@H]5O)CCC4=C3[C@@H](c3ccc(C4CC4)cc3)C[C@@]21C [Compound 20, (8S,11R,13S,14S,17S,E)-11-(4-cyclopropylphenyl)-17-(1,1-difluoroprop-2-yn-1-yl)-17-hydroxy-13-methyl-1,2,6,7,8,11,12,13,14,15,16,17-dodecahydro-3H-cyclopenta[a]phenanthren-3-one O-((2S,3S,4R,5S,6S)-3,4,5-trihydroxy-6-methyltetrahydro-2H-pyran-2-yl) oxime]

SMILES | IC50 [nM]
C#CC(F)(F)[C@]1(O)CC[C@H]2[C@@H]3CCC4=C/C(=N/NC(=O)O[C@@H]5O[C@H](COC(C)=O)[C@H](OC(C)=O)[C@H](OC(C)=O)[C@H]5OC(C)=O)CCC4=C3[C@H](c3ccc(C4CC4)cc3)C[C@@]21C [Compound 28, (2R,3S,4S,5R,6S)-2-(acetoxymethyl)-6-((2-((8S,11S,13S,14S,17S,E)-11-(4-cyclopropylphenyl)-17-(1,1-difluoroprop-2-yn-1-yl)-17-hydroxy-13-methyl-1,2,6,7,8,11,12,13,14,15,16,17-dodecahydro-3H-cyclopenta[a]phenanthren-3-ylidene)hydrazine-1-carbonyl)oxy)tetrahydro-2H-pyran-3,4,5-triyl triacetate] | 10 to 100
